{"source": "PubChem BioAssay AID624497", "about": "(The Scripps Research Institute Molecular Screening Center, 2012)", "note": "The source made the active and inactive calls. No rule for the calls is given here."}
{"molecular_target": "Methionine sulfoxide reductase A (Bos taurus)", "assay": "concentration-response MsrA enzyme activation – biochemical, absorbance, bovine, late stage, dose response (AID 624497)", "settings": "purified MsrA enzyme activity, absorbance read-out"}
{"smiles": "NC1=C(Br)C(=O)c2ccccc2C1=O", "EC50": "> 104 µM (inactive)"}
{"smiles": "O=C(OCC(=O)c1c[nH]c2ccccc12)c1ccc([N+](=O)[O-])s1", "EC50": "> 104 µM (inactive)"}
{"smiles": "O=C1C=C(Nc2ccccc2O)c2ccccc2C1=O", "EC50": "> 104 µM (inactive)"}
{"smiles": "Nc1nc(=S)ss1", "EC50": "inactive"}
{"smiles": "OCC[n+]1c2ccccc2nc2ccc(N3CCOCC3)cc21", "EC50": "inactive"}
{"smiles": "O=C1C(Cl)=C(Nc2ccc(O)cc2)C(=O)c2ccccc21", "EC50": "> 104 µM (inactive)"}
{"smiles": "COc1ccc(S(=O)(=O)N2CCOCC2)cc1NC(=O)COC(=O)c1ccc([N+](=O)[O-])s1", "EC50": "inactive"}
{"smiles": "O=C1C(=O)c2cccnc2-c2ncccc21", "EC50": "4.46 µM"}
{"smiles": "O=C(COC(=O)c1ccc([N+](=O)[O-])s1)NCCc1ccccc1", "EC50": "inactive"}
{"smiles": "O=C1c2ccccc2-c2nnc(-c3ccccc3)cc21", "EC50": "> 104 µM (inactive)"}
{"smiles": "O=C(OCC(=O)N1CCN(c2ccccc2)CC1)c1ccc([N+](=O)[O-])s1", "EC50": "inactive"}
{"smiles": "O=C(c1ccccc1)c1coc2c1C(=O)c1ccccc1C2=O", "EC50": "inactive"}
{"smiles": "O=C(OCC(=O)N(c1ccccc1)c1ccccc1)c1ccc([N+](=O)[O-])s1", "EC50": "inactive"}
{"smiles": "c1ccc2[nH]c3cc4ncnc4cc3nc2c1", "EC50": "inactive"}
{"smiles": "CS(=O)(=O)c1ccc(N)c(SSc2cc(S(C)(=O)=O)ccc2N)c1", "EC50": "> 104 µM (inactive)"}
{"smiles": "CNc1ccc2nc3ccccc3[n+](C)c2c1", "EC50": "2.05 µM"}
{"smiles": "COc1ccccc1NC(=O)COC(=O)c1ccc([N+](=O)[O-])s1", "EC50": "inactive"}
{"smiles": "O=C(COC(=O)c1ccc([N+](=O)[O-])s1)Nc1ccccc1", "EC50": "> 104 µM (inactive)"}
{"smiles": "O=C(COC(=O)c1ccc([N+](=O)[O-])s1)NCc1ccc(F)cc1", "EC50": "inactive"}
{"smiles": "COc1cc(NC(=O)COC(=O)c2ccc([N+](=O)[O-])s2)cc(OC)c1OC", "EC50": "> 104 µM (inactive)"}
{"smiles": "O=C(COC(=O)c1ccc([N+](=O)[O-])s1)Nc1cccc(S(=O)(=O)NC2=NCCCCC2)c1", "EC50": "> 104 µM (inactive)"}
{"smiles": "O=C(OCc1nnc(-c2ccccc2)o1)c1ccc([N+](=O)[O-])s1", "EC50": "inactive"}
{"smiles": "C[n+]1c2ccccc2nc2ccc(NCCO)cc21", "EC50": "4.93 µM"}
{"smiles": "CC(C)(C)c1ccc(NC(=O)COC(=O)c2ccc([N+](=O)[O-])s2)cc1", "EC50": "> 104 µM (inactive)"}
{"smiles": "O=C1CN(C(=O)COC(=O)c2ccc([N+](=O)[O-])s2)c2ccccc2N1", "EC50": "inactive"}
{"smiles": "Cc1oc2c(c1C(=O)c1ccccc1)C(=O)C(=O)c1ccccc1-2", "EC50": "> 104 µM (inactive)"}
{"smiles": "COCCCn1c(=O)c2ccccc2n2c(=S)[nH]nc12", "EC50": "> 104 µM (inactive)"}
{"smiles": "O=[N+]([O-])c1ccc(C=Nc2cccc3ccccc23)s1", "EC50": "> 104 µM (inactive)"}
{"smiles": "O=C(COC(=O)c1ccc([N+](=O)[O-])s1)NNC(=O)c1ccccc1", "EC50": "> 104 µM (inactive)"}
{"smiles": "O=C(COC(=O)c1ccc([N+](=O)[O-])s1)c1ccc[nH]1", "EC50": "inactive"}
{"smiles": "Cc1ccc2[nH]c3c(c2c1)CN(C(=O)CN1CCN(c2ccccn2)CC1)CC3", "EC50": "> 104 µM (inactive)"}
{"smiles": "CC1CCCC(NC(=O)COC(=O)c2ccc([N+](=O)[O-])s2)C1C", "note": "(configuration not stated)", "EC50": "inactive"}
